Laboratory results reported in patent US5466811A, “Dioxolenylmethyl carbamates pro moieties for amine drugs” (Merck & Co., Inc., priority 1994, dated 1995).

What was measured:
in vitro = in vitro ADME; conditions: rat, plasma
Procedure: The process of hydrolysis of the dioxolenylmethyl carbamate of 3,4-dimethoxyphenethylamine was studied by measuring the formation of dimethoxyphenethylamine at 37° C. in neat rat plasma. The reaction was initiated by adding a dimethyl sulfoxide (DMSO) solution of the carbamate to the reaction medium pre-equilibrated at 37° C. in a thermostated water bath. The initial concentrations of the carbamate in rat plasma was 4.3×10^-3 M and the concentration of DMSO was 10%. Samples (100 μL of acetonitrile, vortex mixed for 30 seconds to precipitate the plasma proteins, and centrifuged at 10,000 X g for 5 minutes. The supematants were injected directly and analyxed by HPLC. The HPLC column used was a 10 cm spheri-5 RP-18 column combined with a similar 3 cm guard column. The mobile phase used for the analysis of dimethoxyphenethylamine was 30% v/v of acetonitrile in water containing 0.5 mL/L of 85% phosphoric acid and 0.5 mL/L of triethylamine at a flow rate of 2 mL per minute. The concentration was measured at 280 nm using a variable wave length UV detector. The retention time of dimethoxyphenethylamine under these conditions was 5.8 minutes.

rats = conditions: oral administration, Sakamoto, et al, Chem. Pharm. Bull., 1985, 33, 4870; cited from earlier work

| half-life at 4300 µM (in vitro) | Structure (SMILES) | regeneration of the parent drug (rats) |
| --- | --- | --- |
| 11 min | COc1ccc(CCNC(=O)OCc2oc(=O)oc2C)cc1OC [5'-methyl-2'-oxo-1',3'-dioxol-4'-enyl-4'-methylcarbamoyl-3,4-dimethoxyphenethylamine] | – |
| – | CCn1cc(C(=O)O)c(=O)c2cc(F)c(N3CCN(Cc4oc(=O)oc4C)CC3)cc21 [alkylated nofloxacin] | regenerated the parent drug |
